Legend:
Assay in all cases: radiometric filter-binding kinase assay, Kinase HotSpot
Settings in all cases: compound 0.5 µM; ATP 10 µM
[1] = biological target: CSNK1G3 (human) (UniProt Q9Y6M4)
[2] = biological target: CDC42BPB (human) (UniProt Q9Y5S2)
[3] = biological target: AURKA (human) (UniProt O14965)
[4] = biological target: FGFR1 (human) (UniProt P11362)
[5] = biological target: AURKC (human) (UniProt Q9UQB9)
[6] = biological target: ROS1 (human) (UniProt P08922)
[7] = biological target: DAPK3 (human) (UniProt O43293)
[8] = biological target: PTK2 (human) (UniProt Q05397)
[9] = biological target: PAK3 (human) (UniProt O75914)
[10] = biological target: MYLK2 (human) (UniProt Q9H1R3)
[11] = biological target: MAP3K3 (human) (UniProt Q99759)
[12] = biological target: FGFR4 (human) (UniProt P22455)
[13] = biological target: PRKACA (human) (UniProt P17612)
[14] = biological target: TEC (human) (UniProt P42680)
[15] = biological target: EPHA1 (human) (UniProt P21709)
[16] = biological target: NUAK1 (human) (UniProt O60285)
[17] = biological target: RAF1 (human) (UniProt P04049)
[18] = biological target: CDK2 CCNA2 (human) (UniProt P24941+P20248)
[19] = biological target: RIPK2 (human) (UniProt O43353)
[20] = biological target: ADRBK1 (human) (UniProt P25098)
[21] = biological target: YES1 (human) (UniProt P07947)
[22] = biological target: CLK4 (human) (UniProt Q9HAZ1)
[23] = biological target: RPS6KB2 (human) (UniProt Q9UBS0)
[24] = biological target: CSNK1E (human) (UniProt P49674)
[25] = biological target: CSNK1A1 (human) (UniProt P48729)
[26] = biological target: SRPK1 (human) (UniProt Q96SB4)
[27] = biological target: ERBB4 (human) (UniProt Q15303)
[28] = biological target: BRSK1 (human) (UniProt Q8TDC3)
[29] = biological target: TGFBR1 (human) (UniProt P36897)
[30] = biological target: ACVR1 (human) (UniProt Q04771)
[31] = biological target: GSK3A (human) (UniProt P49840)
[32] = biological target: PIM3 (human) (UniProt Q86V86)
[33] = biological target: MYLK (human) (UniProt Q15746)
[34] = biological target: DMPK (human) (UniProt Q09013)
[35] = biological target: ULK1 (human) (UniProt O75385)
[36] = biological target: RPS6KA5 KD2 (human) (UniProt O75582)
[37] = biological target: RPS6KA6 KD1 KD2 (human) (UniProt Q9UK32)
[38] = biological target: CAMK2G (human) (UniProt Q13555)
[39] = biological target: DYRK4 (human) (UniProt Q9NR20)
[40] = biological target: MKNK2 (human) (UniProt Q9HBH9)
[41] = biological target: CDK5 CDK5R1 p25 (human) (UniProt Q00535+Q15078)
[42] = biological target: MAP3K8 (human) (UniProt P41279)

Chain of RPS6KA5 KD2 (human) (O75582 whole entry, looked up): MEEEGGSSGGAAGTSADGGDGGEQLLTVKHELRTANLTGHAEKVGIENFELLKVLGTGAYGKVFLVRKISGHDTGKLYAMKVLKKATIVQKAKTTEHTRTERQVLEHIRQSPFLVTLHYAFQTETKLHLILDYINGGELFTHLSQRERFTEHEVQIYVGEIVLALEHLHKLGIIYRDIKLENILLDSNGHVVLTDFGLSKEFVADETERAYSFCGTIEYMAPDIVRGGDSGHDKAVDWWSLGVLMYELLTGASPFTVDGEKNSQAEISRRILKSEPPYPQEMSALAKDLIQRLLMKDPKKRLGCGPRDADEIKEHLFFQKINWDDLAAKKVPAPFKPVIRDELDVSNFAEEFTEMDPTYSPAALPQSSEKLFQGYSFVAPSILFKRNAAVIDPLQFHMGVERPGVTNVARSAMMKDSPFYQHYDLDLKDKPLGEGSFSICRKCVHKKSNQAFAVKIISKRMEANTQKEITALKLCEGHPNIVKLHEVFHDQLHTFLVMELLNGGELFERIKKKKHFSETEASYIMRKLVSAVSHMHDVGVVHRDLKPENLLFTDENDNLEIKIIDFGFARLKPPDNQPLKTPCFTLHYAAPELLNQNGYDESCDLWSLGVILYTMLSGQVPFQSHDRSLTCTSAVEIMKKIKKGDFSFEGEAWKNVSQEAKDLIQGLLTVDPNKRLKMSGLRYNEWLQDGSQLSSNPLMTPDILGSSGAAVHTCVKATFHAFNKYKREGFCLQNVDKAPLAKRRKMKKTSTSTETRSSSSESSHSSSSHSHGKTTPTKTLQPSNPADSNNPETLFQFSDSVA
Chain of YES1 (human) (P07947 whole entry, looked up): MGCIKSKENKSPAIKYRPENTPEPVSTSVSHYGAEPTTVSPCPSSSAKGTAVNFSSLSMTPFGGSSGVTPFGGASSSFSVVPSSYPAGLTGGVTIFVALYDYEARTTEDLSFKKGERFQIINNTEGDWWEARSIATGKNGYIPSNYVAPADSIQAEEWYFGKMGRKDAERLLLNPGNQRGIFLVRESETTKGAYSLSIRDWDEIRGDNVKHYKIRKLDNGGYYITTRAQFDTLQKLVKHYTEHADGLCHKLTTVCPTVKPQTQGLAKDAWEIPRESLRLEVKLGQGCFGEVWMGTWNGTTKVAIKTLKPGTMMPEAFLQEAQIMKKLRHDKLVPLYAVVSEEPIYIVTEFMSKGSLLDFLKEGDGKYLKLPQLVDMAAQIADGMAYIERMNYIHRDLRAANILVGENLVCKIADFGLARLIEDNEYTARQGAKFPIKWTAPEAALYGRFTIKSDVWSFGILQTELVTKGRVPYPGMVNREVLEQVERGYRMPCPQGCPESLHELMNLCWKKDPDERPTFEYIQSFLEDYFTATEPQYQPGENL
Chain of ROS1 (human) (P08922 whole entry, looked up): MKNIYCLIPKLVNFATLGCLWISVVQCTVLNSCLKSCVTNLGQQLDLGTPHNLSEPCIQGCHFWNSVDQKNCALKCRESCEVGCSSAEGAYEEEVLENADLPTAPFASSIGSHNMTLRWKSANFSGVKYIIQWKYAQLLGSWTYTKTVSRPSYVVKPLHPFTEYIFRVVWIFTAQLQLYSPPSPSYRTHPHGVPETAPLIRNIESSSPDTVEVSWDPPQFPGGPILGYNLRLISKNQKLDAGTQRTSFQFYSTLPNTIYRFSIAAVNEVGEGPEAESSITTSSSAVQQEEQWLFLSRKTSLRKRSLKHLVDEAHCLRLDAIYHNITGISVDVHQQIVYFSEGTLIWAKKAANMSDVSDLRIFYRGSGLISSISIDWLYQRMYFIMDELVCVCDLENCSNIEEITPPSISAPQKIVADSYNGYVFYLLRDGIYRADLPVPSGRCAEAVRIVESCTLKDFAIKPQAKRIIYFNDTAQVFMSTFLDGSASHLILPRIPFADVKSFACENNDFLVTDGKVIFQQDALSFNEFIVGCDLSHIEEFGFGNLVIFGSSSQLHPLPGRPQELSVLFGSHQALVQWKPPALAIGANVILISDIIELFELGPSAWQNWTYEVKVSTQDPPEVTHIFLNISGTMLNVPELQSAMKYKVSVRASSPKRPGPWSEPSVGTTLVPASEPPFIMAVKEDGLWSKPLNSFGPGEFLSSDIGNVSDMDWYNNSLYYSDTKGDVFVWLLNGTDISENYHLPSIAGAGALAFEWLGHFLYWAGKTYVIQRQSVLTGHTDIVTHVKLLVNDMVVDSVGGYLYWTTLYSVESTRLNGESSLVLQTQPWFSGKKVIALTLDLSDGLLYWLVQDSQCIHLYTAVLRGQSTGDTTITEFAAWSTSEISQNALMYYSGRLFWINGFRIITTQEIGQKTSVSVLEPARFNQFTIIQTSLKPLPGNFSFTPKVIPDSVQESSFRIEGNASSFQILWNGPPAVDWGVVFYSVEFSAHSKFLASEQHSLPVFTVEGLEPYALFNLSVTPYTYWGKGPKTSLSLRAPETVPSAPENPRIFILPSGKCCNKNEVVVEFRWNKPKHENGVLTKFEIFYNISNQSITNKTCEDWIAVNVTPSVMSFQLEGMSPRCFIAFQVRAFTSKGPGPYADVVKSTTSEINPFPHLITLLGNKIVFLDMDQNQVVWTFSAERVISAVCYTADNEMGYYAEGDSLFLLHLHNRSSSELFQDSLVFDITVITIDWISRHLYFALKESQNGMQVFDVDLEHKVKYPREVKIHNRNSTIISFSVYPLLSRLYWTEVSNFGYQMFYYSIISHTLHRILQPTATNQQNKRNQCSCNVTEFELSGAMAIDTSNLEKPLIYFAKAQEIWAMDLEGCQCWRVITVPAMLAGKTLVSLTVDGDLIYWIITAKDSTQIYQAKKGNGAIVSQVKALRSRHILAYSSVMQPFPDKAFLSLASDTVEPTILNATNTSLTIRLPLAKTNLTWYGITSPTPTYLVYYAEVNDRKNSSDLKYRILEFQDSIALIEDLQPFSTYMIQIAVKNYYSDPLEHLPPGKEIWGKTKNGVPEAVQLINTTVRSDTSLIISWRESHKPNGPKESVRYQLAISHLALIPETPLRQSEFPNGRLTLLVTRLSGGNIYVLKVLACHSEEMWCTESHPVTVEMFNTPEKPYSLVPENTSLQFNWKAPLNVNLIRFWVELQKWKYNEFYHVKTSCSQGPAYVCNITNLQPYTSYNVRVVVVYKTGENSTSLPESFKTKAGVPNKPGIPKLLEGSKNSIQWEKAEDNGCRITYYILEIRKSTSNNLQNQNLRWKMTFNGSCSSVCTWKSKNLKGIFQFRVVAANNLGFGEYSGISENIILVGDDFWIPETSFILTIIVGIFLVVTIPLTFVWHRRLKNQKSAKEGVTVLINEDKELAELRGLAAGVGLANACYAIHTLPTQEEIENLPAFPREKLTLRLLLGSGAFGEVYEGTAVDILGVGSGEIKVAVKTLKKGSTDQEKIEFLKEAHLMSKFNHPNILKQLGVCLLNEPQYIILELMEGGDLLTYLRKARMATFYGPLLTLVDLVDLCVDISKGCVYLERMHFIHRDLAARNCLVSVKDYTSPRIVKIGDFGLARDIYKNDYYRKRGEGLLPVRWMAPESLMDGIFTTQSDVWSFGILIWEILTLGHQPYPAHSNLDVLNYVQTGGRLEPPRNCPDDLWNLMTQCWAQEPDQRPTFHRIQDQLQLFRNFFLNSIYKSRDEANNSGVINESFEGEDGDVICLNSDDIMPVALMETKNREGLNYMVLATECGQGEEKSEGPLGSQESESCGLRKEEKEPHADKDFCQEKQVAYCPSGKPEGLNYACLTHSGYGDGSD
Chain of MAP3K3 (human) (Q99759 whole entry, looked up): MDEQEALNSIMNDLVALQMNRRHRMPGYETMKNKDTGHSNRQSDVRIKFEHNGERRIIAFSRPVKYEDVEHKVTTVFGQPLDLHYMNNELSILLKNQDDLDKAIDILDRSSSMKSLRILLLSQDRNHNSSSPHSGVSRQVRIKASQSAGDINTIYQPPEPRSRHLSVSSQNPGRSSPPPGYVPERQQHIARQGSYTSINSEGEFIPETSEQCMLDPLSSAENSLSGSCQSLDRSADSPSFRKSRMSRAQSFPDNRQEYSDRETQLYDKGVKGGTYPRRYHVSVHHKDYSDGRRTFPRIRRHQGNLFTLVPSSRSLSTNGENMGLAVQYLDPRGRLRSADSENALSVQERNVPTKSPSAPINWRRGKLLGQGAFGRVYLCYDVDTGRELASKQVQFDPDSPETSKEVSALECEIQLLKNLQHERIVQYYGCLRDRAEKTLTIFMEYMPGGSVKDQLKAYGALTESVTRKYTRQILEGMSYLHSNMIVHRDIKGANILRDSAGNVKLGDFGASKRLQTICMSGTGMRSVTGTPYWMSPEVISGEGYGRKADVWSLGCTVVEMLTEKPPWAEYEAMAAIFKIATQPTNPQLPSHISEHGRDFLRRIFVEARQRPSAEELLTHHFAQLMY
Chain of DYRK4 (human) (Q9NR20 whole entry, looked up): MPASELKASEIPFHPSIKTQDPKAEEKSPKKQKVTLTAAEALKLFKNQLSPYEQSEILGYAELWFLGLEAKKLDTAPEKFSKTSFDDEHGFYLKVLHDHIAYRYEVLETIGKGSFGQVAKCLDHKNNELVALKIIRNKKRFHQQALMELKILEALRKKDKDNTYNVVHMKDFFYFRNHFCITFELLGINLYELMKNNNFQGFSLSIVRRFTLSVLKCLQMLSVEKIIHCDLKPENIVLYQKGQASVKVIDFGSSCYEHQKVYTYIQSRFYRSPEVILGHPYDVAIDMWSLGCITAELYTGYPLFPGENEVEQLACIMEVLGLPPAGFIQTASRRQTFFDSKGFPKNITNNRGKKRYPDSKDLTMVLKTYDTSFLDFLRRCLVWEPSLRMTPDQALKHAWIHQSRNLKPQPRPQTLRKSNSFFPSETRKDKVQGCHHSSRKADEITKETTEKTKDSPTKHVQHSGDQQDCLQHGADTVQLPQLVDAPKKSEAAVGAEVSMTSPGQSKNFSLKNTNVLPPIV

O=C1C(Cl)=C(N2C(=O)CCC2=O)C(=O)c2ccccc21 showed a residual activity [1] of 93.5%, a residual activity [2] of 98.6% and a residual activity [3] of 105%. For the same molecule, the residual activity [4] was 99.5%, the residual activity [5] was 97.9% and the residual activity [6] was 95.8%. It also gave a residual activity [7] of 114%, a residual activity [8] of 98.4% and a residual activity [9] of 104%. It also gave a residual activity [10] of 98.1%, a residual activity [11] of 95.5% and a residual activity [12] of 105%. The residual activity [13] was 88.8%, the residual activity [14] was 101% and the residual activity [15] was 97.6%. It also gave a residual activity [16] of 105%, a residual activity [17] of 93% and a residual activity [18] of 109%. The residual activity [19] was 84.8%, the residual activity [20] was 105% and the residual activity [21] was 103%. It also gave a residual activity [22] of 94.1%, a residual activity [23] of 102% and a residual activity [24] of 102%. For the same molecule, the residual activity [25] was 99.2%, the residual activity [26] was 103% and the residual activity [27] was 110%. It also gave a residual activity [28] of 96.9%, a residual activity [29] of 101% and a residual activity [30] of 96.9%. For the same molecule, the residual activity [31] was 99.8%, the residual activity [32] was 101% and the residual activity [33] was 99.4%. For the same molecule, the residual activity [34] was 98.5%, the residual activity [35] was 107% and the residual activity [36] was 101%. It also gave a residual activity [37] of 99.9%, a residual activity [38] of 104% and a residual activity [39] of 94.1%. For the same molecule, the residual activity [40] was 84.5%, the residual activity [41] was 87.3% and the residual activity [42] was 91.8%.

For Cc1cncc2cccc(S(=O)(=O)N3CCCN(C(=O)CN)C[C@H]3C)c12, the residual activity [1] was 106%, the residual activity [2] was 105% and the residual activity [3] was 64.7%. For the same molecule, the residual activity [4] was 85.7%, the residual activity [5] was 71.9% and the residual activity [6] was 60.3%. It also gave a residual activity [7] of 90.4%, a residual activity [8] of 78% and a residual activity [9] of 105%. The residual activity [10] was 101%, the residual activity [11] was 99.1% and the residual activity [12] was 79.5%. The residual activity [13] was 99.5%, the residual activity [14] was 117% and the residual activity [15] was 89.2%. For the same molecule, the residual activity [16] was 91.1%, the residual activity [17] was 95.1% and the residual activity [18] was 98.4%. It also gave a residual activity [19] of 94.4%, a residual activity [20] of 101% and a residual activity [21] of 92%. It also gave a residual activity [22] of 105%, a residual activity [23] of 99.3% and a residual activity [24] of 100%. It also gave a residual activity [25] of 98.9%, a residual activity [26] of 103% and a residual activity [27] of 78.4%. For the same molecule, the residual activity [28] was 94.2%, the residual activity [29] was 100% and the residual activity [30] was 95.8%. For the same molecule, the residual activity [31] was 99.6%, the residual activity [32] was 103% and the residual activity [33] was 103%. For the same molecule, the residual activity [34] was 105%, the residual activity [35] was 51.8% and the residual activity [36] was 100%. The residual activity [37] was 105%, the residual activity [38] was 94% and the residual activity [39] was 90.3%. The residual activity [40] was 83.8%, the residual activity [41] was 94.1% and the residual activity [42] was 99.9%.

Cc1nc(-c2ccccc2)c(-c2ccncc2)o1 was tested, and the residual activity [1] was 104%, the residual activity [2] was 101% and the residual activity [3] was 91.2%. It also gave a residual activity [4] of 90.9%, a residual activity [5] of 95.7% and a residual activity [6] of 96%. For the same molecule, the residual activity [7] was 101%, the residual activity [8] was 106% and the residual activity [9] was 100%. It also gave a residual activity [10] of 100%, a residual activity [11] of 101% and a residual activity [12] of 76.5%. For the same molecule, the residual activity [13] was 98.9%, the residual activity [14] was 127% and the residual activity [15] was 93.8%. It also gave a residual activity [16] of 100%, a residual activity [17] of 92.6% and a residual activity [18] of 104%. The residual activity [19] was 87.4%, the residual activity [20] was 100% and the residual activity [21] was 101%. For the same molecule, the residual activity [22] was 121%, the residual activity [23] was 96% and the residual activity [24] was 69.9%. The residual activity [25] was 86.4%, the residual activity [26] was 101% and the residual activity [27] was 92.2%. The residual activity [28] was 99.8%, the residual activity [29] was 102% and the residual activity [30] was 104%. The residual activity [31] was 112%, the residual activity [32] was 106% and the residual activity [33] was 101%. It also gave a residual activity [34] of 103%, a residual activity [35] of 84.6% and a residual activity [36] of 107%. The residual activity [37] was 115%, the residual activity [38] was 91.7% and the residual activity [39] was 91.2%. The residual activity [40] was 90.5%, the residual activity [41] was 97% and the residual activity [42] was 89.9%.

CC(C)(C)c1cc(C=C(C#N)C#N)cc(Br)c1O showed a residual activity [1] of 85.8%, a residual activity [2] of 103% and a residual activity [3] of 89.8%. The residual activity [4] was 95.9%, the residual activity [5] was 87.6% and the residual activity [6] was 93.2%. The residual activity [7] was 96.4%, the residual activity [8] was 107% and the residual activity [9] was 96.9%. The residual activity [10] was 99.3%, the residual activity [11] was 118% and the residual activity [12] was 98%. The residual activity [13] was 102%, the residual activity [14] was 171% and the residual activity [15] was 85.1%. For the same molecule, the residual activity [16] was 95.4%, the residual activity [17] was 104% and the residual activity [18] was 90.7%. For the same molecule, the residual activity [19] was 32.8%, the residual activity [20] was 83.7% and the residual activity [21] was 83%. For the same molecule, the residual activity [22] was 88.6%, the residual activity [23] was 102% and the residual activity [24] was 92.1%. The residual activity [25] was 84.5%, the residual activity [26] was 101% and the residual activity [27] was 94%. It also gave a residual activity [28] of 94%, a residual activity [29] of 103% and a residual activity [30] of 102%. The residual activity [31] was 104%, the residual activity [32] was 89.1% and the residual activity [33] was 90.6%. For the same molecule, the residual activity [34] was 96.9%, the residual activity [35] was 88.2% and the residual activity [36] was 108%. For the same molecule, the residual activity [37] was 101%, the residual activity [38] was 104% and the residual activity [39] was 98.2%. For the same molecule, the residual activity [40] was 100%, the residual activity [41] was 98.2% and the residual activity [42] was 104%.

Source: the kinase profiling compilation of Christmann-Franck et al. (2016)
